# Measurements reported in ChEMBL document CHEMBL4422681, “Comprehensive kinetic and substrate specificity analysis of an arylsulfatase from Helix pomatia using mass spectrometry” (Bioorg Med Chem, 2019).
# Structures can show the parent of a compound that is named as a salt.
# Assays:
# [1] = Stability of the compound in pH 7 ammonium acetate buffer by UPLC-MS/MS analysis; type: physicochemical
# arylsulfatase [2] = assay: Substrate activity at Helix pomatia arylsulfatase assessed as enzyme-mediated compound hydrolysis using 1 U of enzyme measured after 30 mins by UPLC-MS/MS analysis; type: ADME; details: Helix pomatia arylsulfatase (isolated enzyme), read-out: Drug metabolism
# arylsulfatase [3] = assay: Substrate activity at Helix pomatia arylsulfatase assessed as enzyme-mediated compound hydrolysis using 1 U of enzyme measured after 24 hrs by UPLC-MS/MS analysis; type: ADME; details: Helix pomatia arylsulfatase (isolated enzyme), read-out: Drug metabolism
# arylsulfatase [4] = assay: Substrate activity at Helix pomatia arylsulfatase assessed as enzyme-mediated compound hydrolysis by measuring Km by UPLC-MS/MS analysis; type: ADME; details: Helix pomatia arylsulfatase (isolated enzyme)
# [5] = Substrate activity at Helix pomatia arylsulfatase assessed as enzyme-mediated compound hydrolysis by measuring Vmax by UPLC-MS/MS analysis; type: ADME
# [6] = Substrate activity at Helix pomatia arylsulfatase assessed as enzyme-mediated compound hydrolysis by measuring catalytic efficiency by UPLC-MS/MS analysis; type: ADME
# [7] = Drug metabolism in pH 7 ammonium acetate buffer assessed as 7-hydroxy-4-methyl-2H-chromen-2-one formation
# arylsulfatase [8] = assay: Substrate activity at Helix pomatia arylsulfatase assessed as enzyme-mediated compound hydrolysis using 5 U of enzyme measured after 30 mins by UPLC-MS/MS analysis; type: ADME; details: Helix pomatia arylsulfatase (isolated enzyme), read-out: Drug metabolism
# arylsulfatase [9] = assay: Substrate activity at Helix pomatia arylsulfatase assessed as enzyme-mediated compound hydrolysis by measuring parent compound remaining using 0.1 U of enzyme measured after 30 mins by UPLC-MS/MS analysis; type: ADME; details: Helix pomatia arylsulfatase (isolated enzyme), read-out: Stability
structure (smiles),measurement,setting,value
C=Cc1ccc(OS(=O)(=O)O)c(OC)c1,Stability,[1],Stable
same,metabolised at 0.5 h,arylsulfatase [2],100%
Cc1c[nH]c2ccc(OS(=O)(=O)O)cc12,Stability,[1],Stable
same,metabolised at 24 h,arylsulfatase [3],100%
COc1cc(/C=C/C(=O)O)ccc1OS(=O)(=O)O,Stability,[1],Stable
same,metabolised at 24 h,arylsulfatase [3],100%
same,Km,arylsulfatase [4],161 µM
same,Vmax,[5],0.01 µM/s
same,Activity,[6],862 s⁻¹ µM⁻¹
O=S(=O)(O)Oc1c[nH]c2ccccc12 [INDOXYL SULFATE],Stability,[1],Stable
same,metabolised at 24 h,arylsulfatase [3],100%
same,Km,arylsulfatase [4],216 µM
same,Vmax,[5],0.02 µM/s
same,Activity,[6],1060 s⁻¹ µM⁻¹
CC(=O)NCCc1ccc(OS(=O)(=O)O)cc1,Stability,[1],Stable
same,metabolised at 24 h,arylsulfatase [3],100%
same,Km,arylsulfatase [4],1490 µM
same,Vmax,[5],0.17 µM/s
same,Activity,[6],1210 s⁻¹ µM⁻¹
O=S(=O)(O)Oc1cccc(O)c1,Stability,[1],Stable
same,metabolised at 24 h,arylsulfatase [3],100%
same,Km,arylsulfatase [4],131 µM
same,Vmax,[5],0.01 µM/s
same,Activity,[6],696 s⁻¹ µM⁻¹
Cc1cc(=O)oc2cc(OS(=O)(=O)O)ccc12,Drug metabolism,[7],Metabolite detected
same,metabolised at 0.5 h,arylsulfatase [8],100%
same,remaining at 0.5 h,arylsulfatase [9],3%
same,Stability,[1],Stable
same,metabolised at 0.5 h,arylsulfatase [2],100%
same,Km,arylsulfatase [4],175 µM
same,Vmax,[5],2.66 µM/s
C[C@]12CC[C@@H]3c4ccc(OS(=O)(=O)O)cc4CC[C@H]3[C@@H]1CCC2=O [ESTRONE SULFURIC ACID],Stability,[1],Stable
same,metabolised at 0.5 h,arylsulfatase [2],100%
same,Km,arylsulfatase [4],351 µM
same,Vmax,[5],3.8 µM/s
O=[N+]([O-])c1ccc(OS(=O)(=O)O)cc1,Stability,[1],Stable
same,metabolised at 0.5 h,arylsulfatase [2],100%
CCc1ccc(OS(=O)(=O)O)cc1,Stability,[1],Stable
same,metabolised at 24 h,arylsulfatase [3],100%
same,Km,arylsulfatase [4],1020 µM
same,Vmax,[5],0.66 µM/s
same,Activity,[6],7010 s⁻¹ µM⁻¹
Cc1ccc(OS(=O)(=O)O)cc1,Stability,[1],Stable
same,metabolised at 24 h,arylsulfatase [3],100%
same,Km,arylsulfatase [4],1400 µM
same,Vmax,[5],0.08 µM/s
same,Activity,[6],623 s⁻¹ µM⁻¹
COc1cc(C(=O)O)ccc1OS(=O)(=O)O,Stability,[1],Stable
same,metabolised at 24 h,arylsulfatase [3],100%
same,Km,arylsulfatase [4],341 µM
same,Vmax,[5],0.01 µM/s
same,Activity,[6],351 s⁻¹ µM⁻¹
O=C(O)/C=C/c1ccc(OS(=O)(=O)O)cc1,Stability,[1],Stable
same,metabolised at 24 h,arylsulfatase [3],100%
same,Km,arylsulfatase [4],262 µM
same,Vmax,[5],0.02 µM/s
same,Activity,[6],898 s⁻¹ µM⁻¹
COc1ccc2c(c1)c(=O)oc1cc(OS(=O)(=O)O)ccc12,Stability,[1],Stable
same,metabolised at 0.5 h,arylsulfatase [2],100%
same,Km,arylsulfatase [4],112 µM
same,Vmax,[5],8.21 µM/s
